The results in this text go back to ChEMBL document CHEMBL5236616, “Chlorinated Naringenin Analogues as Potential Inhibitors of Transthyretin Amyloidogenesis” (J Med Chem, 2022).

Structures are written as SMILES. ≈ marks a conversion by molar mass, not a printed value. Calls of active or inactive are those of the source. The calls are words filed in the database; no cut-off is given here.

Data set [1] concerns Transthyretin (Homo sapiens), P02766 [V50M]. The data set is described as follows: Inhibition of acid mediated TTR V30M mutant aggregation (unknown origin) expressed in Escherichia coli preincubated for 30 mins followed by acid stimulation and measured after 96 hrs by fluorescence spectrophotometer analysis. The note with it: time 96.5 hrs.
A short description of data set [2]: Drug concentration in rat plasma at 1.82 mg/kg, po. The data set is classed as ADME, organism-based. The following applies: in vivo.
Data set [3] concerns the target Transthyretin (Homo sapiens, UniProt P02766, V50M). As to the kind of experiment: Binding affinity to TTR V30M mutant (unknown origin) expressed in Escherichia coli by ITC assay. Background: Isothermal titration calorimetry measures the heat released or taken up as one component is titrated into another.
Data set [4] deals with Transthyretin (Homo sapiens), P02766 [V50M]. As to the kind of experiment: Binding affinity to TTR V30M mutant (unknown origin) expressed in Escherichia coli assessed as gibbs free energy change by ITC assay.
Data set [5] has the same test system. The data set is described as follows: Binding affinity to TTR V30M mutant (unknown origin) expressed in Escherichia coli assessed as change in enthalpy by ITC assay.
The test system is the same in data set [6]. As to the kind of experiment: Binding affinity to TTR V30M mutant (unknown origin) expressed in Escherichia coli assessed as change in entropy by ITC assay.
In data set [7] the target is Transthyretin (Homo sapiens) (UniProt P02766). As to the kind of experiment: Displacement of (E)-S-phenyl 3(4-hydroxy-3,5-dimethylstyryl)benzothioate from human plasma TTR at 20 uM incubated for 6 hrs by fluorescence based assay. The data set is classed as cell-free.
Data set [8] is described as follows: Aqueous solubility of compound at pH 1.2 incubated for 4 hrs. The note with it: aqueous medium. The data set is classed as physicochemical.
Data set [9] is described as follows: Aqueous solubility of compound at pH 6.8 incubated for 4 hrs. The following applies: aqueous medium. It is filed as physicochemical.
Data set [10] in a line: Permeability of compound at 10 uM after 4 hrs by LC-MS/MS based PAMPA. The data set is classed as ADME. The note with it: read-out: permeability. For orientation: PAMPA measures passive passage across an artificial lipid membrane.
Data set [11] can be described thus: Plasma protein binding in rat assessed as unbound fraction at 1 uM incubated for 4 hrs by rapid equilibrium dialysis method. It is filed as ADME, cell-free.
A short description of data set [12]: Drug concentration in Sprague-Dawley rat plasma at 1 mg/kg, iv after 8 hrs by LC-MS/MS anlaysis. The data set is classed as ADME, organism-based.
Data set [13] in a line: Drug concentration in Sprague-Dawley rat plasma at 1 mg/kg, po after 8 hrs by LC-MS/MS anlaysis. The data set is classed as ADME, organism-based.
A short description of data set [14]: Drug concentration in Sprague-Dawley rat eye ball at 1 mg/kg, iv after 8 hrs by LC-MS/MS anlaysis. The data set is classed as ADME, organism-based, Eyeball of camera-type eye. The note with it: read-out: Ct.
Data set [15] can be described thus: Drug concentration in Sprague-Dawley rat eye ball at 1 mg/kg, po after 8 hrs by LC-MS/MS anlaysis. The note with it: read-out: Ct. It is filed as ADME, organism-based, Eyeball of camera-type eye.
Data set [16] is described as follows: Drug concentration in Sprague-Dawley rat brain at 1 mg/kg, iv after 8 hrs by LC-MS/MS anlaysis. The data set is classed as ADME, organism-based. The following applies: read-out: Ct.
The nature of data set [17]: Drug concentration in Sprague-Dawley rat brain at 1 mg/kg, po after 8 hrs by LC-MS/MS anlaysis. It is filed as ADME, organism-based. The following applies: read-out: Ct.
Data set [18] is described as follows: Ratio of drug concentration in Sprague-Dawley rat eye ball to plasma at 1 mg/kg, iv after 8 hrs by LC-MS/MS analysis. It is filed as ADME, organism-based.
Data set [19] in a line: Ratio of drug concentration in Sprague-Dawley rat eye ball to plasma at 1 mg/kg, po after 8 hrs by LC-MS/MS analysis. It is filed as ADME, organism-based.
The nature of data set [20]: Ratio of drug concentration in Sprague-Dawley rat brain to plasma at 1 mg/kg, iv after 8 hrs by LC-MS/MS analysis. The data set is classed as ADME, organism-based.
Data set [21] is described as follows: Ratio of drug concentration in Sprague-Dawley rat brain to plasma at 1 mg/kg, po after 8 hrs by LC-MS/MS analysis. It is filed as ADME, organism-based.

For orientation: IC50 means the point on the concentration scale where inhibition reaches its midpoint. For `O=C1CC(c2ccc(Cl)cc2)Oc2cc(O)cc(O)c21` (stereo not given), inhibition in data set [1] was half-maximal at 15 µM (IC50). This counts as double-digit micromolar.

As usually defined, the Kd is the equilibrium constant for the complex coming apart. In [2], `O=C1C[C@@H](c2ccc(O)cc2)Oc2cc(O)cc(O)c21` [NARINGENIN] had a concentration of 1500 nM. In data set [1], this compound displayed an IC50 of 12 µM. In data set [3], this compound displayed a Kd of 1.63 µM. Further, the deltaG in [4] is -7.9 kcal/mol. The deltaH in data set [5] was -10.9 kcal/mol. Also, the TdeltaS in [6] turned out to be 1.32 kcal/mol.

On to `O=C1CC(c2cc(Cl)c(O)c(Cl)c2)Oc2cccc(O)c21` (stereo not given), for which, in data set [7], the outcome was Active. The same compound registered an IC50 in [1] of 3.6 µM. This compound had an equilibrium dissociation constant (Kd) in [3] of 0.013 µM. In addition, the deltaG in data set [4] was -10.9 kcal/mol. Also, the deltaH in data set [5] was -8.61 kcal/mol. Besides, in data set [6], the TdeltaS is -2.28 kcal/mol.

Usually solubility stands for the concentration that dissolves in the medium under given conditions. A high value points to a readily soluble substance. The term Kp denotes tissue or fluid exposure divided by exposure in the circulation. For `O=C1CC(c2cc(Cl)c(O)c(Cl)c2)Oc2cc(O)cc(O)c21` (stereo not given), the result in data set [7] was Active. Besides, half-maximal inhibition in data set [1] (IC50) was put at 3.7 µM. Further, in data set [3], the affinity, expressed as Kd, was 0.016 µM. The deltaG in data set [4] was -10.7 kcal/mol. Moreover, the deltaH in data set [5] is -16.7 kcal/mol. Also, the TdeltaS in data set [6] was 6 kcal/mol. The solubility at 4 h in data set [8] amounted to 0.66 µM (≈ 0.225 µg/mL); in [9] it was 28.3 µM (≈ 9.65 µg/mL). In addition, in data set [10], the Papp at 4 h, 10 µM is greater than 50 ×10⁻⁶ cm/s. In data set [11], the Fu was determined as 0.081%. The concentration at 8 h in data set [12] amounted to 717 nM; in data set [13] it was 267 nM; in [14], 150 nM; in data set [15], 37.1 nM; in data set [16], 53.1 nM; in data set [17] it was 15.6 nM. Besides, the Kp at 8 h in data set [18] is 0.209; in [19], 0.139; in data set [20], 0.074; in data set [21], 0.058.

With `O=C1CC(c2cc(Cl)c(O)c(Cl)c2)Oc2cc(O)ccc21` (stereo not given), the result in data set [7] was Active. Moreover, in [1], the half-maximal inhibitory concentration (IC50) came to 4.6 µM. For the same compound, in data set [3], the dissociation constant (Kd) is 0.026 µM. For the same compound, in data set [4], the deltaG is -10.4 kcal/mol. Moreover, the deltaH in data set [5] was -13.2 kcal/mol. Besides, the TdeltaS in [6] was 2.78 kcal/mol.

As for `O=C1CC(c2cc(Cl)cc(Cl)c2)Oc2cc(O)cc(O)c21` (stereo not given), the result in data set [7] was Active. Further, the IC50 in [1] came to 3.8 µM. In data set [3], this compound yielded an equilibrium dissociation constant (Kd) of 0.006 µM. In addition, in data set [4], the deltaG is -13.6 kcal/mol. Further, the deltaH in [5] is -7.42 kcal/mol. For the same compound, the TdeltaS in data set [6] is -6.17 kcal/mol.

For the compound `O=C1CC(c2ccc(O)c(Cl)c2)Oc2cc(O)cc(O)c21` (stereo not given), in data set [7], the outcome was Active. It took 5.3 µM to reach half-maximal inhibition in data set [1] (IC50). Moreover, in data set [3], the Kd worked out at 0.403 µM. Also, the deltaG in data set [4] is -8.73 kcal/mol. The deltaH in [5] was -13.2 kcal/mol. The TdeltaS in data set [6] worked out at 4.47 kcal/mol.

Compound `O=C1CC(c2ccc(O)c(Cl)c2)Oc2cccc(O)c21` (stereo not given) showed an IC50 in data set [1] of 7.2 µM.

The compound `O=C1CC(c2ccc(O)c(Cl)c2)Oc2ccc(O)cc21` (stereo not given) registered an IC50 in data set [1] of 5.9 µM.

As to `O=C1CC(c2cc(Cl)c(O)c(Cl)c2)Oc2ccc(O)cc21` (stereo not given), the half-inhibitory concentration (IC50) in data set [1] worked out at 4.3 µM.

As to `O=C1CC(c2ccc(O)c(Cl)c2)Oc2cc(O)ccc21` (stereo not given), inhibition in [1] was half-maximal at 6 µM (IC50).
